Data: ChEMBL document CHEMBL1201862, “PubChem BioAssay data set” (2004)
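Grown in 96-well plates, cells were treated for 48 hours with each compound at five concentrations. Insufficient inhibition: endpoint recorded as highest concentration tested. GI50 marks 50% less growth.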 Active and inactive are the calls of the source. No stated cut-off is given here; in the data, active = GI50 up to about 1.1 µM and inactive = higher.

Assays:
Assay in all cases: NCI anticancer screen, dose series, 48 h
[1] = tested on: UACC-257
[2] = tested on: OVCAR-5
[3] = tested on: UO-31
[4] = tested on: IGROV-1
[5] = tested on: K562
[6] = tested on: LOX IMVI
[7] = tested on: SNB-19
[8] = tested on: HL-60
[9] = tested on: NCI-H522
[10] = tested on: EKVX
[11] = tested on: SF-295
[12] = tested on: HOP-92
[13] = tested on: ACHN
[14] = tested on: SK-OV-3
[15] = tested on: OVCAR-3
[16] = tested on: RPMI-8226
[17] = tested on: OVCAR-4
[18] = tested on: M14
[19] = tested on: UACC-62
[20] = tested on: NCI-H226

Measured: GI50

CC(c1cccc2ccccc12)/[N+]([O-])=C/c1ccccc1 (centres undefined)
inactive: [1] > 100 µM | [2] > 100 µM | [3] 39.6 µM | [4] > 100 µM | [5] > 100 µM | [6] > 100 µM | [7] > 100 µM | [8] 99.5 µM | [9] 78.7 µM | [10] 70.8 µM | [11] > 100 µM | [12] 29.5 µM | [13] > 100 µM | [14] > 100 µM | [15] > 100 µM | [16] 58.3 µM

CC1CN=C(N(C(=O)Nc2ccccc2)c2ccc(Cl)c(Cl)c2)S1 (centres undefined)
inactive: [1] 32.2 µM | [2] 34.1 µM | [3] 24.8 µM | [4] 41.6 µM | [17] 75.3 µM | [5] > 10 µM | [6] 25.9 µM | [7] 70.6 µM | [8] 30.3 µM | [10] 23.3 µM | [11] 45.5 µM | [12] 17.1 µM | [13] 31.6 µM | [14] 52.7 µM | [15] > 10 µM | [18] 38.7 µM | [16] 41.3 µM

c1ccc(C[n+]2ccc3c(c2)CCCC3)cc1
inactive: [1] 33.8 µM | [2] > 100 µM | [3] > 100 µM | [4] > 100 µM | [17] 56 µM | [5] 11.7 µM | [6] 92.7 µM | [7] 49.5 µM | [8] 29.5 µM | [10] 10.6 µM | [11] 77.3 µM | [12] > 100 µM | [13] 64.6 µM | [14] > 100 µM | [15] 36.8 µM | [18] 95.7 µM | [19] > 100 µM | [16] 65.9 µM | [20] > 100 µM

CCOC(=O)c1cc(C2CCN(CC(C)CC)C2=S)c(-c2cc(C)no2)[nH]1 (centres undefined)
inactive: [1] > 100 µM | [2] > 100 µM | [3] 17.3 µM | [4] > 100 µM | [17] > 100 µM | [5] 77.4 µM | [6] 41.8 µM | [7] 46.1 µM | [8] 35 µM | [10] 14.7 µM | [11] > 100 µM | [12] 38 µM | [14] > 100 µM | [15] > 100 µM | [18] > 100 µM | [19] 72.3 µM | [16] 66.1 µM | [20] 55.3 µM

Nc1nc(Nc2ccc(Cl)cc2)sc1C(=O)c1c[nH]c2ccccc12
inactive: [1] 7.26 µM | [2] 21.1 µM | [3] 15.4 µM | [4] 17.3 µM | [17] 14.7 µM | [5] 6.18 µM | [6] 18.2 µM | [7] 14.3 µM | [8] 15.7 µM | [12] 20 µM | [13] 12.4 µM | [14] 21.4 µM | [15] 13.8 µM | [18] 11.2 µM | [19] 14.9 µM | [16] 11.6 µM | [20] 19.3 µM

CC1(C)S[C@@H]2[C@H](NC(=O)[C@H](N)c3ccccc3)C(=O)N2[C@H]1C(=O)O [AMPICILLIN]
inactive: [1] > 100 µM | [2] > 100 µM | [3] > 100 µM | [4] > 100 µM | [6] > 100 µM | [7] > 100 µM | [8] > 100 µM | [9] 40.1 µM | [10] > 100 µM | [11] > 100 µM | [12] > 100 µM | [13] > 100 µM | [15] > 100 µM | [18] > 100 µM | [19] > 100 µM | [16] > 100 µM

O=C(/N=N/C(=O)OCc1ccccc1)OCc1ccccc1
inactive: [1] > 100 µM | [2] > 100 µM | [3] 31.6 µM | [4] > 100 µM | [17] 66.1 µM | [5] 63.5 µM | [6] > 100 µM | [7] 64.9 µM | [8] 43.7 µM | [10] > 100 µM | [11] 35 µM | [12] 10.4 µM | [13] 76.4 µM | [14] > 100 µM | [15] 58.2 µM | [18] > 100 µM | [19] > 100 µM | [16] 53.2 µM

CCCCCCCCNC(=O)SCCCC
inactive: [2] 37.2 µM | [3] 26.5 µM | [4] 46.5 µM | [17] 36.7 µM | [5] 34.4 µM | [6] 19.9 µM | [7] 27.5 µM | [8] 18.8 µM | [9] 24.4 µM | [10] 29.4 µM | [11] 38 µM | [12] 17.6 µM | [13] 34.6 µM | [14] > 100 µM | [15] 49.5 µM | [18] 33.8 µM | [19] 43.2 µM | [16] 22.4 µM
